Marks after values point to notes of the source that are not given here.
system: Kunming mice; assay: Influence on autonomic activity of normal mice (ZIL-2 mice autonomic activity meter, counts within 10 min); assay type: in vivo; conditions: intragastric, 25 mg/kg, 1 h after administration, x ± s, n = 10
Source text: (§1) 1.1 Animals for experiments: Kunming mice, weighting 18.9˜22.2 g for females, and 20.2˜23.0 g for males, licensed under SCXK-(Ji) 2007-0003, and provided by The experimental animal centre, Jilin University.
(§2) 1.2 Chemicals for experiments: The flavone derivatives provided in Examples 1-41 and the flavanone derivatives provided in Examples 42-71 are all formulated with 0.5% sodium carboxymethyl cellulose as solutions with required concentrations.
(§3) 1.3 Grouping of animals: 6420 animals are employed in the entire experiments and 2140 of the animals are randomly divided into 214 groups by gender, and the […] include: control group, low dosage group for each experimental drugs (25 mg/kg), medium dosage group for each experimental drugs (50 mg/kg), and high dosage group for each experimental drugs (100 mg/kg). Each group has 10 animals and either female or male constitutes half of the group. The groups are used in behavior observation and voluntary action observation. The other 4280 animals are randomly divided into 214 groups by gender respectively (the grouping way is the same with that described above). Each group has 20 animals and either female or male constitutes half of the group. In each group, 10 animals are used in hypnosis experimentations with pentobarbital sodium doses below the threshold, and the other 10 animals are used hypnosis experimentations with pentobarbital sodium doses at the threshold.
1.4 Experimental instrument and agents: ZIL-2 mice autonomic activity meter, production of Institute of Materia Medica of Chinese Academy of Medical Sciences; pentobarbital sodium, Lot: 100808, 25 g/bottle, Beijing Chemical Reagent Company equipment imported from Germany.
1.5.2 Influence on Autonomic Activity of Normal Mice
After observing the general behavior, in 1 h, 2 h and 24 h after drug administration, respectively, ZIL-2 mice autonomic activity meter is put respectively. Number of autonomic activities of each group of mice is measured within 10 min. Results among groups are compared.
(§4) Number of autonomic activities is detected by leneve Test for homogeneity of variance. If the homogeneity of variance is good (P>0.05), statistical analysis is performed with ANOVA. If ANOVA have statistical significance (P≦0.05), Dunnett's test for multiple comparisons analysis is performed. Number of animals of sleeping mice is applied of ANOVA. Incidence rate of animal asleep is applied of χ2 test. Sleep latency and sleep duration are recorded in min, averaged by group, represented by standard deviation, and undergo statistical analysis using ANOVA.

Row | Compound | Times of activities in 1 h after drug administration/10 min
1 | C=Cc1cc2c(=O)cc(-c3ccc(CC)c(N)c3)oc2c(C2CCSC2)c1C(N)=O (stereo not drawn) [Example 30] | 289.2 ± 45.7 /10 min
2 | COc1cc2c(c(OC)c1OC)OC(c1cc(OC)c(OC)c(OC)c1OC)CC2=O (stereo not drawn) [Example 67, 6,7,8,3′,4′,5′,6′-hepta methoxyl-flavanone] | 287.7 ± 45.4 /10 min

same assay, conditions: intragastric, 25 mg/kg, 2 h after administration, x ± s, n = 10

Row | Compound | Times of activities in 2 h after drug administration/10 min
3 | C=Cc1cc2c(=O)cc(-c3ccc(CC)c(N)c3)oc2c(C2CCSC2)c1C(N)=O (stereo not drawn) [Example 30] | 264.1 ± 42.2 /10 min
4 | COc1cc2c(c(OC)c1OC)OC(c1cc(OC)c(OC)c(OC)c1OC)CC2=O (stereo not drawn) [Example 67, 6,7,8,3′,4′,5′,6′-hepta methoxyl-flavanone] | 312.5 ± 54.8 /10 min

same assay, conditions: intragastric, 25 mg/kg, 24 h after administration, x ± s, n = 10

Row | Compound | Times of activities in 24 h after drug administration/10 min
5 | C=Cc1cc2c(=O)cc(-c3ccc(CC)c(N)c3)oc2c(C2CCSC2)c1C(N)=O (stereo not drawn) [Example 30] | 302.2 ± 87.3 /10 min
6 | COc1cc2c(c(OC)c1OC)OC(c1cc(OC)c(OC)c(OC)c1OC)CC2=O (stereo not drawn) [Example 67, 6,7,8,3′,4′,5′,6′-hepta methoxyl-flavanone] | 307.4 ± 77.0 /10 min

same assay, conditions: intragastric, 50 mg/kg, 1 h after administration, x ± s, n = 10

Row | Compound | Times of activities in 1 h after drug administration/10 min
7 | C=Cc1cc2c(=O)cc(-c3ccc(CC)c(N)c3)oc2c(C2CCSC2)c1C(N)=O (stereo not drawn) [Example 30] | 235.8 ± 42.1 /10 min
8 | COc1cc2c(c(OC)c1OC)OC(c1cc(OC)c(OC)c(OC)c1OC)CC2=O (stereo not drawn) [Example 67, 6,7,8,3′,4′,5′,6′-hepta methoxyl-flavanone] | 247.2 ± 44.5 /10 min

same assay, conditions: intragastric, 50 mg/kg, 2 h after administration, x ± s, n = 10

Row | Compound | Times of activities in 2 h after drug administration/10 min
9 | C=Cc1cc2c(=O)cc(-c3ccc(CC)c(N)c3)oc2c(C2CCSC2)c1C(N)=O (stereo not drawn) [Example 30] | 244.5 ± 48.2 /10 min
10 | COc1cc2c(c(OC)c1OC)OC(c1cc(OC)c(OC)c(OC)c1OC)CC2=O (stereo not drawn) [Example 67, 6,7,8,3′,4′,5′,6′-hepta methoxyl-flavanone] | 251.3 ± 38.8 /10 min

same assay, conditions: intragastric, 50 mg/kg, 24 h after administration, x ± s, n = 10

Row | Compound | Times of activities in 24 h after drug administration/10 min
11 | C=Cc1cc2c(=O)cc(-c3ccc(CC)c(N)c3)oc2c(C2CCSC2)c1C(N)=O (stereo not drawn) [Example 30] | 294.5 ± 70.6 /10 min
12 | COc1cc2c(c(OC)c1OC)OC(c1cc(OC)c(OC)c(OC)c1OC)CC2=O (stereo not drawn) [Example 67, 6,7,8,3′,4′,5′,6′-hepta methoxyl-flavanone] | 314.6 ± 94.9 /10 min

same assay, conditions: intragastric, 100 mg/kg, 1 h after administration, x ± s, n = 10

Row | Compound | Times of activities in 1 h after drug administration/10 min
13 | C=Cc1cc2c(=O)cc(-c3ccc(CC)c(N)c3)oc2c(C2CCSC2)c1C(N)=O (stereo not drawn) [Example 30] | 134.6 ± 35.7 /10 min
14 | COc1cc2c(c(OC)c1OC)OC(c1cc(OC)c(OC)c(OC)c1OC)CC2=O (stereo not drawn) [Example 67, 6,7,8,3′,4′,5′,6′-hepta methoxyl-flavanone] | 223.4 ± 46.5 /10 min

same assay, conditions: intragastric, 100 mg/kg, 2 h after administration, x ± s, n = 10

Row | Compound | Times of activities in 2 h after drug administration/10 min
15 | C=Cc1cc2c(=O)cc(-c3ccc(CC)c(N)c3)oc2c(C2CCSC2)c1C(N)=O (stereo not drawn) [Example 30] | 173.5 ± 39.2 /10 min
16 | COc1cc2c(c(OC)c1OC)OC(c1cc(OC)c(OC)c(OC)c1OC)CC2=O (stereo not drawn) [Example 67, 6,7,8,3′,4′,5′,6′-hepta methoxyl-flavanone] | 243.7 ± 40.6 /10 min

same assay, conditions: intragastric, 100 mg/kg, 24 h after administration, x ± s, n = 10

Row | Compound | Times of activities in 24 h after drug administration/10 min
17 | C=Cc1cc2c(=O)cc(-c3ccc(CC)c(N)c3)oc2c(C2CCSC2)c1C(N)=O (stereo not drawn) [Example 30] | 288.8 ± 92.1 /10 min
18 | COc1cc2c(c(OC)c1OC)OC(c1cc(OC)c(OC)c(OC)c1OC)CC2=O (stereo not drawn) [Example 67, 6,7,8,3′,4′,5′,6′-hepta methoxyl-flavanone] | 301.9 ± 88.6 /10 min

system: Kunming mice; assay: Influence on hypnosis effect with pentobarbital sodium doses at the threshold (50 mg/kg i.p.); assay type: in vivo; conditions: 25 mg/kg intragastric single dose, pentobarbital sodium 50 mg/kg i.p. 60 min later, x ± s, n = 10
Source text: as §1, §2, §3
1.5.4 Influence on Hypnosis Effect with Mice Pentobarbital Sodium Doses at the Threshold
(§5) The drug is intragastric administered in mice for single time, 2 animals of each group are given drug per round with the dosing interval of 40 min (±5 min). According to the administration round, in 60 min (±5 min) of each round after the drug administration, the animals were intraperitoneally injected 0.3% sodium pentobarbital 50 mg/kg, respectively. Time to fall asleep (sleep latency) and sleep duration of the animals were recorded within under sleep determination standard of loss of righting reflex more than 1 min.
as §4

Row | Compound | duration of sleep [min] | time to sleep [min]
19 | C=Cc1cc2c(=O)cc(-c3ccc(CC)c(N)c3)oc2c(C2CCSC2)c1C(N)=O (stereo not drawn) [Example 30] | 38.82 ± 15.41 | 4.37 ± 1.58
20 | COc1cc2c(c(OC)c1OC)OC(c1cc(OC)c(OC)c(OC)c1OC)CC2=O (stereo not drawn) [Example 67, 6,7,8,3′,4′,5′,6′-hepta methoxyl-flavanone] | 80.69 ± 20.87 | 4.34 ± 1.26

same assay, conditions: 50 mg/kg intragastric single dose, pentobarbital sodium 50 mg/kg i.p. 60 min later, x ± s, n = 10

Row | Compound | duration of sleep [min] | time to sleep [min]
21 | C=Cc1cc2c(=O)cc(-c3ccc(CC)c(N)c3)oc2c(C2CCSC2)c1C(N)=O (stereo not drawn) [Example 30] | 43.66 ± 21.43 | 3.73 ± 1.22
22 | COc1cc2c(c(OC)c1OC)OC(c1cc(OC)c(OC)c(OC)c1OC)CC2=O (stereo not drawn) [Example 67, 6,7,8,3′,4′,5′,6′-hepta methoxyl-flavanone] | 48.12 ± 22.48 | 4.09 ± 1.45

same assay, conditions: 100 mg/kg intragastric single dose, pentobarbital sodium 50 mg/kg i.p. 60 min later, x ± s, n = 10

Row | Compound | duration of sleep [min] | time to sleep [min]
23 | C=Cc1cc2c(=O)cc(-c3ccc(CC)c(N)c3)oc2c(C2CCSC2)c1C(N)=O (stereo not drawn) [Example 30] | 58.74 ± 19.57 | 3.25 ± 1.31
24 | COc1cc2c(c(OC)c1OC)OC(c1cc(OC)c(OC)c(OC)c1OC)CC2=O (stereo not drawn) [Example 67, 6,7,8,3′,4′,5′,6′-hepta methoxyl-flavanone] | 54.43 ± 19.81 | 3.87 ± 2.98

system: Kunming mice; assay: Influence on hypnosis effect with pentobarbital sodium doses below the threshold (25 mg/kg i.p.); assay type: in vivo; conditions: test drug 25 mg/kg intragastric single dose, pentobarbital sodium 25 mg/kg i.p. 60 min later, sleep observed in 30 min, n = 10
Source text: as §1, §2, §3
1.5.3 Influence on Hypnosis Effect with Mice Pentobarbital Sodium Doses Below the Threshold
as §5, with “25” for “50”, “Sleep condition” for “Time to fall asleep (sleep latency) and sleep duration”, “observed” for “recorded”, “30 min (under” for “under”, “min). After animals undergo loss of righting reflex, number of the animals is recorded, to calculate sleep percentage.” for “min.”
as §4

Row | Compound | Number of sleeping animals | rate of sleeping (%)
25 | C=Cc1cc2c(=O)cc(-c3ccc(CC)c(N)c3)oc2c(C2CCSC2)c1C(N)=O (stereo not drawn) [Example 30] | 5 | 50** %
26 | COc1cc2c(c(OC)c1OC)OC(c1cc(OC)c(OC)c(OC)c1OC)CC2=O (stereo not drawn) [Example 67, 6,7,8,3′,4′,5′,6′-hepta methoxyl-flavanone] | 5 | 50** %

same assay, conditions: test drug 50 mg/kg intragastric single dose, pentobarbital sodium 25 mg/kg i.p. 60 min later, sleep observed in 30 min, n = 10

Row | Compound | Number of sleeping animals | rate of sleeping (%)
27 | C=Cc1cc2c(=O)cc(-c3ccc(CC)c(N)c3)oc2c(C2CCSC2)c1C(N)=O (stereo not drawn) [Example 30] | 6 | 60** %
28 | COc1cc2c(c(OC)c1OC)OC(c1cc(OC)c(OC)c(OC)c1OC)CC2=O (stereo not drawn) [Example 67, 6,7,8,3′,4′,5′,6′-hepta methoxyl-flavanone] | 6 | 60** %

same assay, conditions: test drug 100 mg/kg intragastric single dose, pentobarbital sodium 25 mg/kg i.p. 60 min later, sleep observed in 30 min, n = 10

Row | Compound | Number of sleeping animals | rate of sleeping (%)
29 | C=Cc1cc2c(=O)cc(-c3ccc(CC)c(N)c3)oc2c(C2CCSC2)c1C(N)=O (stereo not drawn) [Example 30] | 8 | 80*** %
30 | COc1cc2c(c(OC)c1OC)OC(c1cc(OC)c(OC)c(OC)c1OC)CC2=O (stereo not drawn) [Example 67, 6,7,8,3′,4′,5′,6′-hepta methoxyl-flavanone] | 7 | 70** %

From patent US9669003B2, “Use of flavone and flavanone derivatives in preparation of sedative and hypnotic drugs” (priority 2012, dated 2017)
